Source: US8828678B2, “Self-immolative probes for enzyme activity detection” (Enzo Life Sciences, Inc., priority 2010, dated 2014)

Key:
[1] = system: hypoxic HeLa cells; experiment: Detection of hypoxia with hypoxia markers using fluorescence microscopy; assay type: cell-based, human; conditions: 5 μM, 3.5 h, chemical induction of hypoxia (CoCl2, DFO, DMOG) or anoxic treatment, FITC filter
Experimental: The human cervical adenocarcinoma epithelial cell line HeLa, U-2 OS human bone osteosarcoma cell line and hamster ovary CHO K1 cell line were obtained from ATTC. HeLa cells were routinely cultured in Eagle's Minimum Essential Medium with low glucose (ATCC), supplemented with 10% fetal bovine serum (ATCC) and 100 U/ml penicillin, 100 μg/ml streptomycin (Sigma-Aldrich, St. Louis, Mo.). U-2 OS cells were routinely cultured in McCoy's 5a Modified Medium (ATCC), supplemented with 10% fetal bovine serum heat (ATCC) and 100 U/ml penicillin+100 μg/ml streptomycin (Sigma-Aldrich). […]
The day before the experiment, the cells were seeded on 4-well microscope slides (Cel-Line™ Brand, Portsmouth, N.H.) at a density 1×10^4 cells/well (2×10^4 cells/cm^2). […] Post-treatment, the slides were washed twice with PBS, coverslipped and visualized using an Olympus BX-51 fluorescence microscope (FITC filter set, 490ex/525em).
In parallel, the hypoxia cellular state was detected using the hypoxia detecting reagent pimonidazole (Varia et al., 1998; Young, 1977). […] Slides were stained with a 1:100 dilution of FITC-MAb1 against pimonidazole (HP-1 kit from Hypoxyprobe) for 45 min at 4° C., washed twice with PBS, coverslipped and visualized using an Olympus BX-51 fluorescence microscope equipped with an FITC filter set (490ex/525em). […]

[2] = system: HeLa cells; experiment: Combined detection of hypoxia and redox status in live cells by fluorescent microscopy; assay type: cell-based, human; conditions: for superoxide production (superoxide detection reagent staining) in treated HeLa cells: 0.2 mM CoCl2, 0.2 mM DFO or 1 mM DMOG, 3.5 h
Experimental: HeLa and U-2 OS cells were cultured as described in Example 7. Stock solutions of CD-1 and CD-5 and various hypoxia inducers were prepared and stored as described in Examples 7 and 8. Additionally, 5 mM stock solutions (5000×) of 2′,7′-dichloro-fluorescein diacetate (DCFDA, an indicator of global ROS generation) and dihydroethidium (DHE, specific indicator of superoxide generation) were made in anhydrous DMF. DMSO was avoided, since this solvent is a hydroxyl radical scavenger and its presence may affect ROS/RNS production in cellular systems. The following stocks of ROS inducers were prepared in DMF: 10 mM pyocyanin (general ROS generating compound, 100×), 20 mM antimycin A (general ROS inducer, 400×), 50 mM pyrogallol (a superoxide radical generator, 1000×), 1 mM t-butyl hydroperoxide (TBHP, peroxide radical inducer, 10,000×). ROS probes and inducers were aliquoted and stored at −80° C.
The day before the experiment, the cells were seeded on 4-well microscope slides (Cel-Line™ Brand, Portsmouth, N.H.) at a density 1×10^4 cells/well (2×10^4 cells/cm^2). On the day of the experiment, the cells were preloaded with both hypoxia probe (5 μM final concentration in cell culture medium) and ROS detecting reagent with suitable spectral characteristics. Two ROS-detecting probes, DCFDA and DHE, were used in a pilot experiment in conjunction with hypoxia self-immolative probes. The hydrolyzed product of DCFDA, DCFH, is considered to be a general indicator of ROS, reacting with H2O2 (in the presence of peroxidases), ONOO^−, lipid hydroperoxides, and hydroxyl radicals. The oxidized product can be detected by strong fluorescence emission at around 525 nm when excited at around 488 nm. Because H2O2 is a secondary product of O2.^−, DCFH fluorescence has been used to implicate O2.^− production. The direct reaction of DHE with O2.^− yields a very specific fluorescent product, requiring no conversion to H2O2. The product of the DHE reaction with O2.^− fluoresces strongly at around 600 nm when excited at 500-530 nm.
Tested pairs of the probes were as follows: CD-5 with DCFDA or DHE, and CD-1 with DHE. A hypoxic state was induced in the cells as described in Example 7. Control slides were singly-stained with hypoxia or ROS-detecting probes only. Additional slides were treated with different general and specific ROS inducers and stained with ROS-detecting probes to control ROS staining. Post-treatment, the slides were washed twice with PBS, coverslipped and visualized using an Olympus BX-51 fluorescence microscope and a DAPI filter set (350 ex/470em) for CD-5, an FITC filter set (490ex/525em) for CD-1 or for total ROS detection reagent, and an orange filter set (550ex/620em) for HE.

[3] = Chemical assay: reduction of probe by sodium hydrosulfite, fluorescence; conditions: PBS pH 7.4, room temperature, over a 60 minute period
Experimental: A solution of probe CD-6 in DMSO (0.1-1.0 μl) was added to 90 μl of PBS buffer (10 mM, pH 7.4). After mixing, 10 μl of 100 mM aqueous sodium hydrosulfite was added. The reaction mixture was incubated at room temperature for amount of time ranging from 1 minute to 6 hours. As a control, 10 μl of water instead of sodium hydrosulfite was used.

[4] = system: Jurkat cells; experiment: Detection of hypoxia using flow cytometry; assay type: cell-based, human; conditions: 5 μM CD-1, 1 μM CD-6, versus vehicle-treated loaded cells
Experimental: HeLa and U-2 OS cells were cultured as described in Example 7. Human Jurkat T-cell leukemia cells (the A3 subclone) was obtained from ATCC and routinely cultured in RPMI-1640 medium (ATCC) supplemented with 10% fetal bovine serum (ATCC) and 100 U/ml penicillin+100 μg/ml streptomycin (Sigma-Aldrich). Cell cultures were maintained in an incubator at 37° C., with 5% CO2 atmosphere. CD-1, CD-4 and CD-6 self-immolative hypoxia probes were prepared as described in Example 8. All hypoxia inducers stocks were prepared as described in Example 7.
The day before the experiment, HeLa and U-2 OS cells were seeded in 6-well tissue culture plates at a density 5×10^5 cells/well. […] Post-treatment, the adherent cells (HeLa and U-2 OS) were collected by trypsinization, re-suspended in 0.5 mL of fresh PBS and analyzed using flow cytometry. Jurkat cells were analyzed without washing.
Flow cytometry experiments were performed using a FACS Calibur benchtop flow cytometer (BD Biosciences) equipped with a blue (488 nm) laser, and the fluorescence was recorded in the FITC (530/30 filter), PE (585/42 filter) and PerCP (670 LP filter) channels. Hypoxic cells were detected by detecting increases in fluorescence. The degree of hypoxia (Khyp) can be quantified by using Kolmogorov-Smirnov statistics (Young, 1977) or the following formula: Khyp=(MFIhyp−MFIcon)/MFIhyp, […]

[5] = system: Jurkat cells; experiment: Combined detection of hypoxia and superoxide in live cells by flow cytometry; assay type: cell-based, human
Experimental: HeLa, U-2 OS, and Jurkat cell lines were cultured as described in Examples 7 and 9. Stock solutions of the probes and inhibitors were prepared as described in Examples 7 and 10.
The day before the experiment, HeLa and U-2 OS cells were seeded in 6-well tissue culture plates at a density of 5×10^5 cells/well. Jurkat cells were collected in logarithmic phase of growth and aliquoted at a density of 5×10^5 cells/sample. On the day of the experiment, the cells were preloaded with either hypoxia or ROS-detecting probes only or with the combination of hypoxia and ROS-detecting probes with compatible spectral characteristics. Samples stained with single hypoxia probes or with two ROS-detecting probes were made to validate data obtained with the combination of hypoxia and redox probes. The probes used in the experiment and their final concentrations in cell culture medium were as follows: CD-1(5 μM) and CD-6 (1 μM), DCFDA, peroxide/peroxynitrite/hydroxyl detection probe and HE, specific superoxide detection reagent (1 μM for both redox probes). Hypoxia was induced in the cells as described in Example 7. Additionally, cells were treated with different general and specific ROS inducers and stained with ROS-detecting probes to control ROS production and staining. Post-treatment, the adherent cells (HeLa and U-2 OS) were collected by trypsinization, re-suspended in 0.5 mL of fresh PBS and analyzed using flow cytometry. Jurkat cells were analyzed without washing. Flow cytometry experiments were performed using an FACS Calibur benchtop flow cytometer (BD Biosciences) equipped with a blue (488 nm) laser, and the fluorescence was recorded in the FITC (530/30 filter), PE (585/42 filter) and PerCP (670 LP filter) channels. Data were collected uncompensated, also compensation corrections were performed using unstained cells, and cells stained with each single dye separately (CD-1, CD-6, DCFDA or HE). To quantify data, quadrant gates were set using untreated samples.

[6] = system: bacterial nitroreductases; conditions: cited from earlier work
[7] = system: mammalian single-electron reductases; conditions: cited from earlier work

Which “fluorescence signal in hypoxic HeLa cells” value [1] does the source give for `O=C(Nc1ccc2c(c1)Oc1cc(NC(=O)N3CCOCC3)ccc1C21OC(=O)c2ccccc21)OCc1ccccc1` (centres unmarked) [CD-3] here?
Its value is “did not yield any fluorescent signal”.

Which “hypoxia probe fluorescent signal in hypoxic HeLa cells, multiplexed with ROS dyes” value ([2]; 5 μM, all four hypoxic samples (anoxia, CoCl2, DFO, DMOG)) does the source give for `O=C(Nc1ccc2c(C(F)(F)F)cc(=O)oc2c1)OCc1ccc([N+](=O)[O-])cc1` [CD-5] here?
The value was “bright fluorescent signal”.

What does the source list for `O=C(Nc1ccc2c(c1)Oc1c(cc3c4c1CCCN4CCC3)C21OC(=O)c2ccccc21)OCc1ccc([N+](=O)[O-])cc1` (centres unmarked) [CD-6]?
fluorescence after combining with sodium hydrosulfite [3]: increasing fluorescence; fluorescence in Jurkat cells treated with chemical hypoxia inducers or subjected to anoxia [4]: fluorescence increase; detection of hypoxic cell populations ([5]; CD-6 1 μM with DCFDA or HE dyes or alone, flow cytometry): able to detect hypoxic cell populations

What does the source list for `O=c1c(Cl)c2oc3cc([N+](=O)[O-])ccc3nc-2c2ccccc12` [CNOB, 6-Chloro-9-nitro-5-oxo-5H-benzo[a]phenoxazine]?
substrate for bacterial nitroreductases [6]: good substrate; substrate for mammalian nitroreductases [7]: apparently not a substrate

For `[Cl][Co][Cl]` [CoCl2, cobalt chloride], which “superoxide production (superoxide detection reagent staining) in treated HeLa cells” value (“superoxide production … in treated HeLa cells” below) [2] is on record?
The value was “only moderate staining”.

And the “superoxide production: population of orange positive cells” value ([5]; Jurkat cells, compared to the untreated cells)?
Its value is “about 20%”.

Which “superoxide production … in treated HeLa cells” value [2] does the source give for `CC(=O)N(O)CCCCCNC(=O)CCC(=O)N(O)CCCCCNC(=O)CCC(=O)N(O)CCCCCN` [DFO, desferrioxamine] here?
Its value is “Abundant superoxide production”.

For `COC(=O)CNC(=O)C(=O)OC` [DMOG, dimethyloxalylglycine, N-[Methoxyoxoacetyl]glycine methyl ester], which “superoxide production … in treated HeLa cells” value [2] is on record?
The value was “Abundant superoxide production”.

And the “peroxides/peroxynitrite formation in treated HeLa cells” value ([2]; DCFDA staining)?
Its value is “detected in DMOG-treated cells only”.

For `Cn1c2cccc(=O)c-2nc2ccccc21` [Pyocyanin, pyocyanin], which “hypoxia state: positive green cells” value ([5]; Jurkat cells stained with CD-1, pyocyanin-treated) is on record?
Its value is “about 10%”.

And the “superoxide production in treated Jurkat cells” value ([5]; positive control for ROS production)?
The value was “high superoxide production”.
